{"source": "patent US20180318196A1", "about": "“COMPOSITION FOR PROTECTING THE SKIN AGAINST THE EFFECTS OF POLLUTION AND USE THEREOF” (LUBRIZOL ADVANCED MATERIALS, INC., priority 2015, published 2018)", "test_system": "Normal Human Epidermal Keratinocytes from adult (NHEK)", "experiment": "Protection from damage induced by Urban Dust, MTT cell viability assay", "assay_type": "cell-based", "method": "The capacity of protecting skin cell cultures from damage induced by Urban Dust (UD) is evaluated. The UD used is particulate matter (PMs, one of the major air pollutants with effects on the skin) collected in an urban area, Washington DC in 1976 and 1977, with an average particle size of 10.5 μm that contain polycyclic aromatic hydrocarbons (PAHs), polychlorinated biphenyl (PCBs), nitro-PAHs, chlorinated pesticides, dioxins and heavy metals: Damage is generated by the addition of UD to the culture medium and the protection effect from damage of the tested compounds is measured by a cell viability assay.\nThe viability is evaluated by MTT (3-[4,5-dimethylthiazol-2-yl]-2,5 diphenyl tetrazolium bromide), an absorbance-based cell viability method. Live cells present mitochondrial dehydrogenase activity that reduces the dye MTT to an insoluble blue colored product easily detected by absorbance, reflecting viable cells. […]\nThen, cellular viability is evaluated. […] Then, plates are shaken for 5 minutes at room temperature protected from light and absorbance read at 570 nm with wavelength correction at 630 nm, using a Microplate Absorbance Reader (Clariostar®,BMG LabTech).\nThe percentage of cell viability for each condition is calculated with respect to control without pollutants (cells treated with medium alone and not treated with UD). […]", "note": "Read-outs that look alike come from different tables or passages of the source.", "data": [{"smiles": "COc1cc2c(cc1O)CCC(C)(C)O2", "note": "[LPCH, 7-methoxy-2,2-dimethylchroman-6-ol]", "values": [{"measurement": "viability at 50 µg/mL", "setting": "read-out: Relative Cell Viability with Respect To Control without pollutants (%) (MEAN ± SEM), 50 μg/mL LPCH + 50 μg/mL UD", "result": "85.8 ± 3.68", "unit": "%"}, {"measurement": "viability at 50 µg/mL", "setting": "read-out: Relative Cell Viability with Respect To Control without pollutants (%) (MEAN ± SEM), 50 μg/mL LPCH + 100 μg/mL UD", "result": "79 ± 3.21", "unit": "%"}]}]}
